Assays:
[1] = tested on: Venezuelan equine encephalitis virus (VEEV); settings: cited from earlier work
[2] = tested on: Zaire Ebola virus (ZEBOV); settings: cited from earlier work
B16 melanoma cells [3] = assay: CellTiter-Glo luminescence (cell viability) versus TMP concentration, with or without Cherenkov light; assay type: cell-based; settings: 6 MV x-rays at 2 Gy, 48-hour incubation, with Cherenkov light vs without
B16 melanoma cells [4] = assay: Flow cytometry of MHC class I expression after X-ray/Cherenkov exposure; assay type: cell-based; settings: 72 hour incubation
Acinetobacter baumannii = settings: loaded into MCM-41 host, visible light 100 milliWatts per square centimeter; cited from earlier work

[N-]=[N+]=Nc1cccc2c(I)cccc12 [INA, 1,5-iodonaphthyl-azide]
virus inactivation [1]: efficiently inactivate
virus infectivity after INA treatment [2]: completely noninfectious

Cc1cc2cc3c(C)cc(=O)oc3c(C)c2o1 [TMP, 4,5′,8-trimethyl psoralen]
cell viability / cell kill (B16 melanoma cells [3]): cell viability is reduced
MHC 1 expression (B16 melanoma cells [4]; 15 MV X-ray exposure with Cherenkov light): 13.7%
MHC 1 expression (B16 melanoma cells [4]; control with no Cherenkov (x-rays only)): 8.01%
MHC 1 expression (B16 melanoma cells [4]; control with no x-rays): 5.46%

[Mn(PaPy3)(NO)](ClO4) [{Mn—NO}]
clearing of bacteria by released nitric oxide (Acinetobacter baumannii): effectively cleared the bacteria

Reference: patent US11786595B2, “Methods for radiotherapy to trigger light activation drugs” (priority 2015, dated 2023)
